Measurements from article PMC7048285, “Lack of an association between clinical INSTI-related body weight gain and direct interference with MC4 receptor (MC4R), a key central regulator of body weight” (PLoS ONE, 2020).

Legend:
[1] = molecular target: T1, human recombinant melanocortin MC4 receptor (Homo sapiens, UniProt P32245); test: Functional cellular cAMP TR-FRET assay, agonist mode; assay type: cell-based; conditions: for Agonist Fold-margin on human Cmax (unbound): agonist IC50 divided by clinical Cmax (unbound); for IC50: cAMP increase relative to 3 μM NDP-α-MSH control, CHO-K1 cells
T1 construct: host or cells: frozen, irradiated CHO-K1 cells
T1 sequence (P32245 whole entry): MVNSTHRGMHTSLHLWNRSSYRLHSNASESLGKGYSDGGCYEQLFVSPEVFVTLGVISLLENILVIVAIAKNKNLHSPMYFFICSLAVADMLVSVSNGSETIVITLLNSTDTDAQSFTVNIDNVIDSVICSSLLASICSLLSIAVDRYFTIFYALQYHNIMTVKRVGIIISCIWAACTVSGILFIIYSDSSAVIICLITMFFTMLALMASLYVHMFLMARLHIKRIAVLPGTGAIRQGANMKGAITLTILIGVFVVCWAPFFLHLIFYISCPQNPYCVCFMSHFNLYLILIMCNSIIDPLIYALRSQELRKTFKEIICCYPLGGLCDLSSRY

[2] = molecular target: T1, human recombinant melanocortin MC4 receptor; test: Functional cellular cAMP TR-FRET assay, antagonist mode (inhibition of 10 nM NDP-α-MSH response); assay type: cell-based; conditions: for Antagonist Fold-margin on human Cmax (unbound): antagonist IC50 divided by clinical Cmax (unbound)
[3] = Human clinical Cmax at recommended clinical dosage; assay type: in vivo; conditions: unbound (protein-free)
[4] = read-out: Human efficacious Cmax; total plasma, at recommended clinical dosage; cited from earlier work
[5] = human plasma; cited from earlier work
human MC4R [6] = molecular target: T2, human MC4R (Homo sapiens, UniProt P32245); test: Biochemical radioligand binding assay ([125I]NDP-α-MSH) on membranes of transfected CHO cells; design: host or cells: CHO cells (membrane homogenates); conditions: for % inhibition of binding at 100 µM: 100 µM test compound, % inhibition of [125I]NDP-α-MSH specific binding; for IC50: radioligand binding, 0.05 nM [125I]NDP-α-MSH, 8 concentrations
T2 sequence (P32245 whole entry): as above

human MC4R [7] = molecular target: T2, human MC4R; design: method as in earlier work; conditions: 10 μM; previously reported; cited from earlier work
mice = conditions: daily oral, 4 weeks, AUC 16- to 30-fold clinical exposure at 50 mg; cited from earlier work
rats = conditions: daily oral, 26 weeks, AUC 16- to 30-fold clinical exposure at 50 mg; cited from earlier work
cynomolgous monkeys = conditions: daily oral, 39 weeks, AUC 16- to 30-fold clinical exposure at 50 mg; cited from earlier work

Agonist Fold-margin on human Cmax (unbound) [1] | IC50 [1] | IC50 [2] | fold more potent in MC4R antagonism than DTG ([2]; EVG versus DTG) | Antagonist Fold-margin on human Cmax (unbound) [2] | Human efficacious unbound Cmax [3] | % inhibition of binding at 100 µM (human MC4R [6]) | IC50 (human MC4R [6]) | IC50 ([2]; inhibition of 10 nM NDP-α-MSH induced cAMP response, CHO-K1 cells) | Molecule | Cmax [4] | % unbound [5] | inhibition binding value (human MC4R [7]) | effects on body weight gain (mice) | effects on body weight gain (rats) | effects on body weight gain (cynomolgous monkeys)
>13000 fold | > 300 µM | 2.75 µM | approximately 25 fold | 120 fold | 0.0225 µM | 56% | 13 µM |  | COc1cc2c(cc1Cc1cccc(Cl)c1F)c(=O)c(C(=O)O)cn2[C@H](CO)C(C)C [EVG, elvitegravir] | 4.7 µM | 0.48% |  |  |  | 
 |  |  |  |  |  |  |  | 0.012 µM | agouti-related protein (SSRRCVRLHESCLGQQVPCCDPCATCYCRFFNAFCYCRKLGTAMNPCSRT; UniProt O00253 83-132, looked up) [AgRP] |  |  |  |  |  | 
>1200 fold | > 30 µM | > 30 µM |  | >1200 fold | 0.025 µM | 86% | 0.46 µM |  | C[C@H]1CO[C@@H]2Cn3cc(C(=O)NCc4ccc(F)cc4F)c(=O)c(O)c3C(=O)N12 [CAB, cabotegravir] | 15.7 µM | 0.16% |  |  |  | 
>1600 fold | > 100 µM | 69.4 µM |  | 1120 fold | 0.062 µM | 91% | 1.7 µM |  | C[C@@H]1CCO[C@H]2Cn3cc(C(=O)NCc4ccc(F)cc4F)c(=O)c(O)c3C(=O)N12 [DTG, dolutegravir] | 8.8 µM | 0.7% | 64% |  |  | 
>2900 fold | > 100 µM | > 100 µM |  |  | 0.034 µM | 89% | 4.9 µM |  | O=C(NCc1c(F)cc(F)cc1F)c1cn2c(c(O)c1=O)C(=O)N1[C@H]3CC[C@H](C3)O[C@@H]1C2 [BIC, bictegravir] | 13.7 µM | 0.25% |  | no effects on body weight gain | no effects on body weight gain | no effects on body weight gain

Molecule | Agonist Fold-margin on human Cmax (unbound) [1] | IC50 [1] | IC50 [2] | fold more potent in MC4R antagonism than DTG ([2]; EVG versus DTG) | Antagonist Fold-margin on human Cmax (unbound) [2] | Human efficacious unbound Cmax [3] | % inhibition of binding at 100 µM (human MC4R [6]) | IC50 (human MC4R [6]) | IC50 ([2]; inhibition of 10 nM NDP-α-MSH induced cAMP response, CHO-K1 cells) | Cmax [4] | % unbound [5] | inhibition binding value (human MC4R [7]) | effects on body weight gain (mice) | effects on body weight gain (rats) | effects on body weight gain (cynomolgous monkeys)
Cc1nnc(C(=O)NC(C)(C)c2nc(C(=O)NCc3ccc(F)cc3)c(O)c(=O)n2C)o1 [RAL, raltegravir] |  | > 300 µM | > 300 µM |  |  |  | 55% | 78 µM |  | 15.7 µM |  |  |  |  | 
